Data reported in US20260048046A1, “METHOD FOR IMPROVING GROWTH PERFORMANCE IN FEEDLOT CATTLE” (Elanco US Inc., priority 2022, published 2026).

Tested on: beef feedlot cattle
Assay: 56-d study: abnormal health observations and removals
Assay type: in vivo
Experimental: This example describes a randomized complete block study that evaluated LUB dose (0, 1.5, 3.5, and 5.5 mg kg^−1 dry matter) during the last 56 d of the feeding period on live weight, carcass weight, and associated ratios in beef feedlot cattle. Carcass characteristics, mobility, and health were also evaluated. All cattle received monensin and tylosin throughout the study.
A randomized complete block design was used to evaluate the effects of LUB on calculated growth performance of 2,880 British and Continental European crossbred steers typical for U.S. feedlots. Bos indicus breeding was limited to less than ⅛. The study evaluated four
LUB doses: 0 (control, CON), 1.5, 3.5, and 5.5 mg·kg^−1 DM. There were 12 blocks, each block containing four replicate pens that started LUB feeding on the same date. Steers were randomized within each block of four pens with 60 steers per pen, resulting in a total of 720 steers enrolled in each treatment. LUB feeding started on Jun. 24, 2018, Jul. 1, 2018, and Jul. 15, 2018, four blocks on each date.
During the approximately 10 to 15 d acclimation phase and the entire treatment phase until cattle were loaded for slaughter, all animals were observed by trained caretakers at least once daily, but health issues were only noted by exception. All abnormalities were recorded even if considered common for feedlot cattle. Abnormal health observations were observations that the observer considered as 1) typical for beef cattle at that age, or 2) not causing undue pain or distress to the animal, and/or, 3) not impeding the animal's growth at the time the observation was made. Animals with abnormal health observations were allowed to remain in the study. Animals were allowed to receive concomitant therapies (e.g., antibiotic treatment for respiratory disease and treatment for bloat). Health observations requiring an animal to be classified as “removed” were abnormalities that the observer considered as 1) resulting in pain or distress to the animal, or 2) likely to result in further deterioration of the animal's health, and/or 3) impairing the animal's ability to access food or water at the time of the observation. Animals removed from the study during the treatment or withdrawal phase were penned separately in the research feedlot and tracked through slaughter to assure accountability of all cattle on study per food use authorization or were euthanized and necropsied. Decisions to remove an animal from treatment phase were made by the Investigator or Manager. Animals that were found dead at the time of the observation were removed from the pen as soon as practical and necropsied (if possible).
The label claim variable of cumulative NH3 gas emissions over the treatment period normalized by final BW (with d −59 BW as a covariate) for the period and HCW (g of gas kg^−1 of BW or g of gas kg^−1 HCW) was determined by utilizing NH3 gas emissions equations developed from the LUB clinical effectiveness study (FDA-FOI, 2018) and validated using animals of similar BW as described by Brown et al. (2019). The pen was the experimental unit for each outcome. Differences were deemed significant using a two-sided test at Ptrt≤0.05, however, a less stringent significance threshold of Ptrt≤0.10 was used for abnormal health observations. Fixed effect of treatment and random effects of time replicate and block within time replicate were included in the model. Discrete variables were analyzed using a generalized linear mixed model, Proc GLIMMIX SAS version 9.4 unless there were convergence problems due to sparseness of data. A binomial distribution was assumed and a logit link used in the analysis. Contrasts were constructed between the CON group and each non-CON dosage group, and differences were deemed significant at Pdose≤0.05. […]

[1] = Lubabegron 1.5 mg·kg^−1 DM, 56 d, 720 hd per treatment
[2] = Lubabegron 3.5 mg·kg^−1 DM, 56 d, 720 hd per treatment
[3] = Lubabegron 5.5 mg·kg^−1 DM, 56 d, 720 hd per treatment

CC(C)(Cc1ccc(Oc2ncccc2C#N)cc1)NC[C@H](O)COc1ccccc1-c1cccs1 [LUB, 2-{4-[2-({(2S)-2-Hydroxy-3-[2-(2-thienyl)phenoxy]propyl}amino)-2-methylpropyl]phenoxy}nicotinonitrile]
Abnormal health observations and animal removals, between-treatment differences (CON, 1.5, 3.5, 5.5 mg·kg^−1, 56 d, Ptrt>0.10): No significant (Ptrt>0.10) between-treatment differences
Bloat (gastrointestinal), rate [1]: 0.1%
Bloat (gastrointestinal), total number [1]: 1
Dead (animals found dead), rate [1]: 0.3%
Dead (animals found dead), total number [1]: 2
Lameness (musculoskeletal), rate [1]: 1.3%
Lameness (musculoskeletal), total number [1]: 9
Removals (found dead and removed during treatment phase), rate [1]: 2.5%
Removals (found dead and removed during treatment phase), total number [1]: 18
Bloat (gastrointestinal), rate [2]: 0.6%
Bloat (gastrointestinal), total number [2]: 4
Dead (animals found dead), rate [2]: 0.7%
Dead (animals found dead), total number [2]: 5
Lameness (musculoskeletal), rate [2]: 0.4%
Lameness (musculoskeletal), total number [2]: 3
Removals (found dead and removed during treatment phase), rate [2]: 1.5%
Removals (found dead and removed during treatment phase), total number [2]: 11
Bloat (gastrointestinal), rate [3]: 0.3%
Bloat (gastrointestinal), total number [3]: 2
Lameness (musculoskeletal), rate [3]: 1.0%
Lameness (musculoskeletal), total number [3]: 7
Pneumonia (respiratory), rate [3]: 0.3%
Pneumonia (respiratory), total number [3]: 2
Removals (found dead and removed during treatment phase), rate [3]: 1.8%
Removals (found dead and removed during treatment phase), total number [3]: 13
